In patent publication US20030055072A1, “Methods of inhibiting Pin1-associated states using a fredericamycin a compound” (priority 2000, published 2003):
Read-outs that look alike come from different tables or passages of the source.

Tests used:
DU-145 prostate tumor = experiment: tumor growth in scid mouse human prostate tumor model; type: in vivo, scid mice
hFKBP12 = molecular target: T1, hFKBP12 (Homo sapiens, UniProt P62942); experiment: protease-coupled PPIase assay, hFKBP12; type: biochemical
T1 construct: purchased Sigma
T1 sequence (P62942 whole entry): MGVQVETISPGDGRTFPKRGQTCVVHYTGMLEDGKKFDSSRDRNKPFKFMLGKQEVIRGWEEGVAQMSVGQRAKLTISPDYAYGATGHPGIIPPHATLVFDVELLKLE
Description: (§1) PPIase activity measurements were performed by the protease-coupled PPIase assay developed by Fischer et al. (1984). For hPin1 activity measurements, bovine trypsin (final concentration 0.21 mg/mL, Sigma) was used as an isomer-specific protease and Ac-Ala-Ala-Ser(P)-Pro-Arg-pNA (Jerini, Germany) as a substrate. PPIase activity of hFKBP12 (Sigma) and hCyp18 (Sigma) was determined with the peptide substrate Suc-Ala-Phe-Pro-Phe-pNA (Bachem) and the protease α-chymotrypsin (final concentration 0.41 mg/mL, Sigma). The test was performed by observing the released 4-nitroanilide at 390 nm with a Hewlett-Packard 8453 UV-vis spectrophotometer at 10° C. The total reaction volume was adjusted to 1.23 mL by mixing appropriate volumes of 35 mM HEPES (pH 7.8) with enzyme and effector solutions. […] The pseudo-first-order rate constant kobs for cis/trans isomerization in the presence of PPlase and the first-order rate constant k0 of the unkatalyzed cis/trans isomerization were calculated using the Kinetics Software of Hewlett-Packard as well as SigmaPlot2000 for Windows 6.0 (SPSS). The Ki value for inhibition of hPin1 PPIase activity by fredericamycin A at constant concentrations of substrate ([S0]<<KM) was calculated by fitting the data according to the equation for a competitive “tight-binding” inhibitor using SigmaPlot2000.

hCyp18 = molecular target: T2, hCyp18 (Homo sapiens, UniProt P62937); experiment: protease-coupled PPIase assay, hCyp18; type: biochemical
T2 construct: purchased Sigma
T2 sequence (P62937 whole entry): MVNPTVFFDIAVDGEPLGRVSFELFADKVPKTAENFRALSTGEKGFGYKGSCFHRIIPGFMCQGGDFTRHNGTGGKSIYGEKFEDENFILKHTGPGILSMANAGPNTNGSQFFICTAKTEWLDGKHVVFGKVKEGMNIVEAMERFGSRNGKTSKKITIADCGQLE
Description: as §1

hPin1 = hPin1 (Homo sapiens, UniProt Q13526); experiment: protease-coupled PPIase assay, hPin1; type: biochemical
hPin1, sequence (Q13526 whole entry): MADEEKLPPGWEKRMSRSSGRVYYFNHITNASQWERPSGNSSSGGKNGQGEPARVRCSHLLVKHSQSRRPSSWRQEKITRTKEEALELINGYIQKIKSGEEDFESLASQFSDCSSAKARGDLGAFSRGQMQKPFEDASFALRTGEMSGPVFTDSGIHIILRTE
Description: PPIase activity measurements were performed by the protease-coupled PPIase assay developed by Fischer et al. (1984). For hPin1 activity measurements, bovine trypsin (final concentration 0.21 mg/mL, Sigma) was used as an isomer-specific protease and Ac-Ala-Ala-Ser(P)-Pro-Arg-pNA (Jerini, Germany) as a substrate. PPIase activity of hFKBP12 (Sigma) and hCyp18 (Sigma) was determined with the peptide substrate Suc-Ala-Phe-Pro-Phe-pNA (Bachem) and the protease α-chymotrypsin (final concentration 0.41 mg/mL, Sigma). The test was performed by observing the released 4-nitroanilide at 390 nm with a Hewlett-Packard 8453 UV-vis spectrophotometer at 10° C. The total reaction volume was adjusted to 1.23 mL by mixing appropriate volumes of 35 mM HEPES (pH 7.8) with enzyme and effector solutions. Fredericamycin A (BioLeads, Germany) was freshly diluted from a 1 mg/mL stock solution in DMSO. If not otherwise indicated, fredericamycin A (0-6 μM) was pre-incubated with the enzyme for 5 min (10° C.). Prior to the start of reaction by addition of the respective protease, 2 μL of the peptide substrate stock solution (10 mg/mL in DMSO) were added. The amount of organic solvent was kept constant within each experiment (<0.1%). The pseudo-first-order rate constant kobs for cis/trans isomerization in the presence of PPlase and the first-order rate constant k0 of the unkatalyzed cis/trans isomerization were calculated using the Kinetics Software of Hewlett-Packard as well as SigmaPlot2000 for Windows 6.0 (SPSS). The Ki value for inhibition of hPin1 PPIase activity by fredericamycin A at constant concentrations of substrate ([S0]<<KM) was calculated by fitting the data according to the equation for a competitive “tight-binding” inhibitor using SigmaPlot2000.
FIG. 1: Ki value for hPin1 PPlase activity inhibition by fredericamycin A. PPIase activity measurements were performed as described in Materials and Methods. 6.0 nM of Pin1 were pre-incubated with 0-4.8 μM fredericamycin A in 35 mM HEPES (pH 7.8) at […] for 5 min. Ac-Ala-Ala-Ser(P)-Pro-Arg-pNA (21.9 μM) was used as a substrate. Reactions were started by addition of trypsin.
FIG. 2: Time dependency of Pin1 PPIase activity inhibition by fredericamycin A. PPIase activity measurements were performed as described in Materials and Methods. 6.0 nM hPin1 was incubated for 0, 5, 10, 15, 20, 25 and 30 min with 0 (●) and 1 μM (♦) fredericamycin, respectively.
FIG. 3: Reversibility of the interaction between hPin1 and fredericamycin A. 209 nM of hPin1 were incubated with 0 (▪) and 0.16 (□) […] fredericamycin A and the remaining PPIase activity of hPin1 was measured before and after micro-separation through a semipermeable membrane using the protease-coupled PPlase assay according to Materials and Methods.

glioblastoma cells = conditions: Misra et al. 1982; cited from earlier work
[1] = Day 7 (before dosing), group 0.34 mg/kg ip Days 16-20
[2] = Day 12 (before dosing), group 0.34 mg/kg ip Days 16-20
[3] = Day 18, 0.34 mg/kg ip Days 16-20
[4] = Day 25, 0.34 mg/kg ip Days 16-20
[5] = Day 32, 0.34 mg/kg ip Days 16-20
[6] = Day 14 (before dosing), group 0.34 mg/kg ip Days 16-20
[7] = Day 21, 0.34 mg/kg ip Days 16-20
[8] = Day 28, 0.34 mg/kg ip Days 16-20

Structure (SMILES): O=C1c2c(O)ccc(O)c2C(=O)c2c(NCCNCCO)ccc(NCCNCCO)c21 [Mitox, reference compound]
- mice that died after 32 days (0.34 mg/kg ip Days 16-20, ten mice per group): None
- Mean Mouse Weight [1]: 27.98 g
- Mean Mouse Weight [2]: 28.32 g
- Mean Mouse Weight [3]: 27.39 g
- Mean Mouse Weight [4]: 27.38 g
- Mean Mouse Weight [5]: 28.04 g
- Mean Mouse Weight (Day −6 (before dosing), group 0.34 mg/kg ip Days 16-20): 26.36 g
- Tumor Volume (DU-145 prostate tumor; [1]): 0.02 cm^3
- Tumor Volume (DU-145 prostate tumor; [2]): 0.05 cm^3
- Tumor Volume (DU-145 prostate tumor; [6]): 0.09 cm^3
- Tumor Volume (DU-145 prostate tumor; [3]): 0.19 cm^3
- Tumor Volume (DU-145 prostate tumor; [7]): 0.22 cm^3
- Tumor Volume (DU-145 prostate tumor; [4]): 0.37 cm^3
- Tumor Volume (DU-145 prostate tumor; [8]): 0.53 cm^3
- Tumor Volume (DU-145 prostate tumor; [5]): 0.72 cm^3

Structure (SMILES): C/C=C/C=C/c1cc2cc3c(c(O)c2c(=O)[nH]1)C1(CC3)C(=O)c2c(O)c3c(c(O)c2C1=O)C(=O)C(OC)=CC3=O (stereo not drawn) [fredericamycin A]
- death of mice (0.67 mg/kg ip from Day 16, ten mice per group): All of the mice receiving 0.67 mg/kg of Fred A died by about Day 17
- number of mice that lived until Day 32 (mouse, in vivo): 2
- IC50 (hFKBP12): 6200 ± 1700 nM
- IC50 (hCyp18): 5100 ± 2000 nM
- Ki (hPin1; 6.0 nM Pin1, 5 min pre-incubation, 35 mM HEPES pH 7.8, substrate Ac-Ala-Ala-Ser(P)-Pro-Arg-pNA, competitive tight-binding fit, read-out: Ki value for inhibition of the PPIase activity of hPin1): 820 ± 608 nM
- time dependency of inhibition of hPin1 PPIase activity (hPin1; 6.0 nM hPin1, 1 μM inhibitor, 0-30 min incubation): no time dependency of inhibition within 30 min
- remaining hPin1 PPIase activity (hPin1; 209 nM hPin1, 0.16 mM inhibitor, before micro-concentration): 23%
- hPin1 reactivation after micro-concentration through semi-permeable membrane (reversibility) (hPin1; 209 nM hPin1, 0.16 mM inhibitor, buffer replaced 3 times, compared to inhibitor-free enzyme control): 97.5%
- preference for the parvulin hPin1 over the other tested PPIases (hPin1; hPin1 versus hCyp18 and hFKBP12): 6- to 7 fold
- IC50 (hPin1; protease-coupled PPIase assay): 890 ± 50 nM
- Tumor Volume (DU-145 prostate tumor; [1]): 0.02 cm^3
- Tumor Volume (DU-145 prostate tumor; Day 7 (before dosing), group 0.67 mg/kg ip Days 16-20): 0.04 cm^3
- Tumor Volume (DU-145 prostate tumor; [2]): 0.05 cm^3
- Tumor Volume (DU-145 prostate tumor; Day 12 (before dosing), group 0.67 mg/kg ip Days 16-20): 0.04 cm^3
- Tumor Volume (DU-145 prostate tumor; [6]): 0.05 cm^3
- Tumor Volume (DU-145 prostate tumor; Day 14 (before dosing), group 0.67 mg/kg ip Days 16-20): 0.07 cm^3
- Tumor Volume (DU-145 prostate tumor; [3]): 0.03 cm^3
- Tumor Volume (DU-145 prostate tumor; Day 18, 0.67 mg/kg ip Days 16-20): 0.05 cm^3
- Tumor Volume (DU-145 prostate tumor; [7]): 0.11 cm^3
- Tumor Volume (DU-145 prostate tumor; [4]): 0.11 cm^3
- Tumor Volume (DU-145 prostate tumor; [8]): 0.22 cm^3
- Tumor Volume (DU-145 prostate tumor; [5]): 0.35 cm^3
- reduction of mean tumor volume as compared to the DMSO or Mitox controls (DU-145 prostate tumor; FIG. 4, DU-145 tumor bearing scid mice, ip Days 16-20): 50%
- anti-tumor activity against glioblastoma cells (glioblastoma cells): comparable to 1,3-bis(2-chloroethyl)-1-nitrosourea (BCNU)
